Experimental data as given in patent US20250032454A1, “KDM1A INHIBITORS FOR THE TREATMENT OF DISEASE” (Imago Biosciences, Inc., priority 2021, published 2025).

tested on: MV4;11 cells; test: Cell Titer-Glo cell growth inhibition in MV4;11 cell line (Day 5 / Day 10); type: cell-based; conditions: Homo sapiens, MV4-11, 120 h, Day 5, read-out: Cell Titer-Glo IC50 (5 d)
Procedure: Cell growth inhibition against MV4;11 cells was confirmed for the synthetic compounds. The Cell Titer-Glo Luminescent Cell Viability Assay (Promega, USA) was used to determine the number of viable cells in culture based on quantitation of the ATP present, which signals the presence of metabolically active cells. This assay was run in a 96-well plate format arrayed in a 10-point dose curve, ranging from 0 to 50 µM with 4-fold dilutions for each compound. Cells are seeded on Day 0 at 3750 cells per well. At Day 5, a portion of each well is assayed for viability according to the Cell Titer-Glo protocol. Briefly, cells/plates were centrifuged at 1100×g for 5 minutes. 100 μL of media was removed from each well and replaced with 100 μL of CellTiter-Glo. The plates were shaken at room temperature for 10 minutes and measured on a luminescence plate reader. Another portion of each well from the Day 5 plate is used to seed a new 96 plate containing fresh compound and media set up in the equivalent 10-point dose curve array in order to continue the cell growth inhibition assay for another 5 days. A final timepoint is collected at Day 10 using the Cell Titer-Glo protocol. Luminescence was detected on an En Vision® Multilabel Plate Reader (Perkin Elmer, Waltham, Mass.) and IC50 determination was made using Graph Pad Prism software.

Row | Structure (SMILES) | IC50
1 | N#Cc1ccc(-c2cc(NCC3CCC[C@H](N)C3)nn2-c2ccc3nn(-c4ccncc4)cc3c2)cc1F (stereo partly drawn) [Example 75, 4-(3-((((15,3S)-3-aminocyclohexyl)methyl)amino)-1-(2-(pyridin-4-yl)-2H-indazol-5-yl)-1H-pyrazol-5-yl)-2-fluorobenzonitrile] | 0.5 to 1 µM

same assay, conditions: Homo sapiens, MV4-11, 240 h, Day 10, read-out: Cell Titer-Glo IC50 (10 d)

Row | Structure (SMILES) | IC50
2 | N#Cc1ccc(-c2cc(NCC3CCC[C@H](N)C3)nn2-c2ccc3nn(-c4ccncc4)cc3c2)cc1F (stereo partly drawn) [Example 75, 4-(3-((((15,3S)-3-aminocyclohexyl)methyl)amino)-1-(2-(pyridin-4-yl)-2H-indazol-5-yl)-1H-pyrazol-5-yl)-2-fluorobenzonitrile] | < 0.5 µM

target: LSD1 (Homo sapiens, UniProt O60341); test: LSD1 fluorescence coupling enzyme assay (HRP/Amplex Red, H3(1-21)K4me2 peptide), 10-dose IC50; type: biochemical; conditions: 10 μM histone H3(1-21)K4me2 peptide substrate, 3-fold serial dilution from 100 μM
Text: Assaying the inhibition of KDM1A can be determined in vitro, in cultured cells, and in animals. There are a variety of spectrophotometric methods to detect the results of demethylation of methylated lysines, viz., detecting the products of KDM1A demethylase oxidative activity on a peptide fragment of at least 18 amino acids representing the N-terminus of the histone H3 substrate that contains a monomethyl at the fourth lysine residue. Hydrogen peroxide, one product of the KDM1A demethylase reaction, reacts with horseradish peroxidase and dihydroxyphenoxazine (ADHP) to produce the fluorescent compound resorufin (excitation=530-560 nm: emission=590 nm). The KDM1A demethylase enzyme activity can be obtained from mammalian cells or tissues expressing KDM1A from an endogenous or recombinant gene and purified or assayed from a whole cell extract. These methods can be used to determine the concentration of the disclosed compounds can inhibit fifty percent of the enzyme activity (IC50).
Alternatively, the production of H2O2 during the KDM1A reaction can be detected fluometrically. In this system, the production of H2O2 is detected in the HDM assay buffer after exposure to substrate, co-factor and enzyme using ADHP (10-Acetyl-3, 7-dihydroxyphenoxazine) as a fluorogenic substrate for horse radish peroxidase (HRP). […] The florescent product is resorufin. Sensitivity can be as low as 10-15 M of target protein. The signal is read using a fluorescence microplate reader at excitation and emission wavelengths of 530-560 nm and 590 nm, respectively.
Compounds were tested in a 10-dose IC50 mode fluorescence coupling enzyme assay with 3-fold serial dilution in duplicate starting at 100 μM. The production of FAD-dependent H2O2 as a result of demethylase activity of LSD1 on 10 μM histone H3(1-21)K4me2 peptide substrate was measured by coupling with HRP and Amplex Red to yield resorufin (fluorescence measured at Ex/Em=535/590 nm on EnVision, Perkin Elmer).

Row | Structure (SMILES) | IC50
3 | COc1ccc(-n2nc(NC[C@@H]3CCCNC3)cc2-c2ccc(C#N)c(F)c2)cc1 [Example 3R, (R)-2-fluoro-4-(1-(4-methoxyphenyl)-3-((piperidin-3-ylmethyl)amino)-1H-pyrazol-5-yl)benzonitrile] | < 0.5 µM
4 | COc1ccc(-n2nc(NC[C@H]3CCCNC3)cc2-c2ccc(C#N)c(F)c2)cc1 [Example 3S, (S)-2-fluoro-4-(1-(4-methoxyphenyl)-3-((piperidin-3-ylmethyl)amino)-1H-pyrazol-5-yl)benzonitrile] | < 0.5 µM
5 | COc1ccc(-n2nc(NC[C@@H]3CCC[C@H](CN)C3)cc2-c2ccc(C#N)c(F)c2)cc1 [Example 79, 4-(3-((((1R,3S)-3-(aminomethyl)cyclohexyl)methyl)amino)-1-(4-methoxyphenyl)-1H-pyrazol-5-yl)-2-fluorobenzonitrile] | 1 to 10 µM
6 | COc1ccc(-n2nc(NC[C@H]3CCC[C@H](CN)C3)cc2-c2ccc(C#N)c(F)c2)cc1 [Example 80, 4-(3-((((15,3S)-3-(aminomethyl)cyclohexyl)methyl)amino)-1-(4-methoxyphenyl)-1H-pyrazol-5-yl)-2-fluorobenzonitrile] | 0.5 to 1 µM
7 | N#Cc1ccc(-c2cc(NC[C@H]3CCC[C@H](N)C3)nn2-c2ccc(N3CCC(O)CC3)cc2)cc1F [Example 89, 4-(3-((((1S,3S)-3-aminocyclohexyl)methyl)amino)-1-(4-(4-hydroxypiperidin-1-yl)phenyl)-1H-pyrazol-5-yl)-2-fluorobenzonitrile] | < 0.5 µM
8 | N#Cc1ccc(-c2cc(NCC3CCCNCC3)nn2-c2ccc(N3CC[S+]([O-])CC3)cc2)cc1F (centres unmarked) [Example 90, 4-(3-((Azepan-4-ylmethyl)amino)-1-(4-(1-oxidothiomorpholino)phenyl)-1H-pyrazol-5-yl)-2-fluorobenzonitrile 2,2,2-trifluoroacetate] | < 0.5 µM
9 | N#Cc1ccc(-c2cc(NC[C@@H]3CCCNCC3)nn2-c2ccc(N3CC[S+]([O-])CC3)cc2)cc1F [Example 91, (R)-4-(3-((azepan-4-ylmethyl)amino)-1-(4-(1-oxidothiomorpholino)phenyl)-1H-pyrazol-5-yl)-2-fluorobenzonitrile 2,2,2-trifluoroacetate] | < 0.5 µM
10 | COC1CCN(c2ccc(-n3nc(NC[C@H]4CCC[C@H](N)C4)cc3-c3ccc(C#N)c(F)c3)c(F)c2)CC1 [Example 92, 4-(3-((((1S,3S)-3-aminocyclohexyl)methyl)amino)-1-(2-fluoro-4-(4-methoxypiperidin-1-yl)phenyl)-1H-pyrazol-5-yl)-2-fluorobenzonitrile 2,2,2-trifluoroacetate] | < 0.5 µM
11 | CN(c1ccc(-n2nc(NC[C@H]3CCC[C@H](N)C3)cc2-c2ccc(C#N)c(F)c2)cc1)C1CCOCC1 [Example 93, 4-(3-((((1S,3S)-3-aminocyclohexyl)methyl)amino)-1-(4-(methyl(tetrahydro-2H-pyran-4-yl)amino)phenyl)-1H-pyrazol-5-yl)-2-fluorobenzonitrile 2,2,2-trifluoroacetate] | < 0.5 µM
12 | CC(C)OC1CCN(c2ccc(-n3nc(NC[C@H]4CCC[C@H](N)C4)cc3-c3ccc(C#N)c(F)c3)cc2)CC1 [Example 94, 4-(3-((((1S,3S)-3-aminocyclohexyl)methyl)amino)-1-(4-(4-isopropoxypiperidin-1-yl)phenyl)-1H-pyrazol-5-yl)-2-fluorobenzonitrile 2,2,2-trifluoroacetate] | < 0.5 µM
13 | N#Cc1ccc(-c2cc(NC[C@H]3CCC[C@H](N)C3)nn2-c2ccc(N3CCC4(CCCO4)CC3)cc2)cc1F [Example 95, 4-(1-(4-(1-Oxa-8-azaspiro[4.5]decan-8-yl)phenyl)-3-((((1S,3S)-3-aminocyclohexyl)methyl)amino)-1H-pyrazol-5-yl)-2-fluorobenzonitrile 2,2,2-trifluoroacetate] | < 0.5 µM
14 | N#Cc1ccc(-c2cc(NC[C@H]3CCC[C@H](N)C3)nn2-c2ccc(N3CCOCC3)cc2)cc1F [Example 96, 4-(3-((((1S,3S)-3-aminocyclohexyl)methyl)amino)-1-(4-morpholinophenyl)-1H-pyrazol-5-yl)-2-fluorobenzonitrile 2,2,2-trifluoroacetate] | < 0.5 µM
15 | CCOC1CCN(c2ccc(-n3nc(NC[C@H]4CCC[C@H](N)C4)cc3-c3ccc(C#N)c(F)c3)cc2)CC1 [Example 97, 4-(3-((((1S,3S)-3-aminocyclohexyl)methyl)amino)-1-(4-(4-ethoxypiperidin-1-yl)phenyl)-1H-pyrazol-5-yl)-2-fluorobenzonitrile 2,2,2-trifluoroacetate] | < 0.5 µM
16 | CO[C@H]1CCCN(c2ccc(-n3nc(NC[C@H]4CCC[C@H](N)C4)cc3-c3ccc(C#N)c(F)c3)cc2)C1 [Example 98, 4-(3-((((1S,3S)-3-aminocyclohexyl)methyl)amino)-1-(4-((S)-3-methoxypiperidin-1-yl)phenyl)-1H-pyrazol-5-yl)-2-fluorobenzonitrile 2,2,2-trifluoroacetate] | < 0.5 µM
17 | N#Cc1ccc(-c2cc(NC[C@H]3CCC[C@H](N)C3)nn2-c2ccc(N3CCSCC3)cc2)cc1F [Example 99, 4-(3-((((1S,3S)-3-aminocyclohexyl)methyl)amino)-1-(4-thiomorpholinophenyl)-1H-pyrazol-5-yl)-2-fluorobenzonitrile] | < 0.5 µM
18 | N#Cc1ccc(-c2cc(NC[C@@H]3CCC[C@@H](N)C3)nn2-c2ccc(N3CCSCC3)cc2)cc1F [Example 100, 4-(3-((((1R,3R)-3-aminocyclohexyl)methyl)amino)-1-(4-thiomorpholinophenyl)-1H-pyrazol-5-yl)-2-fluorobenzonitrile] | < 0.5 µM
19 | CC1(O)CCN(c2ccc(-n3nc(NC[C@H]4CCC[C@H](N)C4)cc3-c3ccc(C#N)c(F)c3)cc2)CC1 [Example 101, 4-(3-((((1S,3S)-3-aminocyclohexyl)methyl)amino)-1-(4-(4-hydroxy-4-methylpiperidin-1-yl)phenyl)-1H-pyrazol-5-yl)-2-fluorobenzonitrile 2,2,2-trifluoroacetate] | < 0.5 µM
20 | COC1(C)CCN(c2ccc(-n3nc(NC[C@H]4CCC[C@H](N)C4)cc3-c3ccc(C#N)c(F)c3)cc2)CC1 [Example 102, 4-(3-((((1S,3S)-3-aminocyclohexyl)methyl)amino)-1-(4-(4-methoxy-4-methylpiperidin-1-yl)phenyl)-1H-pyrazol-5-yl)-2-fluorobenzonitrile 2,2,2-trifluoroacetate] | < 0.5 µM
21 | N#Cc1ccc(-c2cc(NC[C@H]3CCC[C@H](N)C3)nn2-c2ccc(N3CCC(C#N)CC3)cc2)cc1F [Example 103, 1-(4-(3-((((1S,3S)-3-aminocyclohexyl)methyl)amino)-5-(4-cyano-3-fluorophenyl)-1H-pyrazol-1-yl)phenyl)piperidine-4-carbonitrile 2,2,2-trifluoroacetate] | < 0.5 µM
22 | N#Cc1ccc(-c2cc(NC[C@H]3CCC[C@H](N)C3)nn2-c2ccc(N3CCNC(=O)C3)cc2)cc1F [Example 104, 4-(3-((((1S,3S)-3-aminocyclohexyl)methyl)amino)-1-(4-(3-oxopiperazin-1-yl)phenyl)-1H-pyrazol-5-yl)-2-fluorobenzonitrile] | < 0.5 µM
23 | CN1CCN(c2ccc(-n3nc(NC[C@H]4CCC[C@H](N)C4)cc3-c3ccc(C#N)c(F)c3)cc2)CC1=O [Example 105, 4-(3-((((1S,3S)-3-aminocyclohexyl)methyl)amino)-1-(4-(4-methyl-3-oxopiperazin-1-yl)phenyl)-1H-pyrazol-5-yl)-2-fluorobenzonitrile] | 1 to 10 µM
